Test results reported in PubChem BioAssay AID256 (DTP/NCI, 2004).
Several values for one entry are separate records, joined by “and”; a condition that tells them apart may be missing. Equal entries are not always repeated. Inconclusive results and toxic doses are left out.

System: CD2F1 mice, L1210 leukemia ip, survival T/C
Experiment: NCI In Vivo Anticancer Drug Screen. Data for tumor model L1210 Leukemia (intraperitoneal) in CD2F1 (CDF1) mice
Details: higher = longer survival
Outline: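 Mice carrying a transplanted tumor received test compound or vehicle alone. The value is the measurement in the treated group divided by that in the vehicle-treated control group.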

[1] = endpoint: mean survival time, dose: 25.0 mg/kg/injection, schedule: Q04DX003 (ip), vehicle: saline
[2] = endpoint: mean survival time, dose: 50.0 mg/kg/injection, schedule: Q01DX009 (ip), vehicle: saline with Tween-80
[3] = endpoint: mean survival time, dose: 100.0 mg/kg/injection, schedule: Q01DX009 (ip), vehicle: saline with Tween-80
[4] = endpoint: mean survival time, dose: 200.0 mg/kg/injection, schedule: Q01DX009 (ip), vehicle: saline with Tween-80
[5] = endpoint: mean survival time, dose: 100.0 mg/kg/injection, schedule: Q01DX001 (ip), vehicle: Klucel (hydroxypropylcellulose) (HPC)
[6] = endpoint: mean survival time, dose: 200.0 mg/kg/injection, schedule: Q01DX001 (ip), vehicle: Klucel (hydroxypropylcellulose) (HPC)
[7] = endpoint: mean survival time, dose: 400.0 mg/kg/injection, schedule: Q01DX001 (ip), vehicle: Klucel (hydroxypropylcellulose) (HPC)
[8] = endpoint: mean survival time, dose: 400.0 mg/kg/injection, schedule: Q01DX009 (ip), vehicle: saline with Tween-80
[9] = endpoint: mean survival time, dose: 100.0 mg/kg/injection, schedule: Q04DX003 (ip), vehicle: saline with Tween-80
[10] = endpoint: mean survival time, dose: 200.0 mg/kg/injection, schedule: Q04DX003 (ip), vehicle: saline with Tween-80
[11] = endpoint: mean survival time, dose: 400.0 mg/kg/injection, schedule: Q04DX003 (ip), vehicle: saline with Tween-80
[12] = endpoint: mean survival time, dose: 100.0 mg/kg/injection, schedule: Q01DX001 (ip), vehicle: saline
[13] = endpoint: mean survival time, dose: 200.0 mg/kg/injection, schedule: Q01DX001 (ip), vehicle: saline
[14] = endpoint: mean survival time, dose: 100.0 mg/kg/injection, schedule: Q01DX009 (ip), vehicle: other
[15] = endpoint: mean survival time, dose: 400.0 mg/kg/injection, schedule: Q01DX009 (ip), vehicle: other

With `C[n+]1ccccc1/C=C/c1ccccn1` the T/C (endpoint: mean survival time, dose: 5.3 mg/kg/injection, schedule: Q01DX009 (ip), vehicle: saline with Tween-80) was 97 % of control, the T/C (endpoint: mean survival time, dose: 6.25 mg/kg/injection, schedule: Q04DX003 (ip), vehicle: saline) was 95 % of control and the T/C (endpoint: mean survival time, dose: 8.0 mg/kg/injection, schedule: Q01DX009 (ip), vehicle: saline with Tween-80) was 100 % of control. The T/C (endpoint: mean survival time, dose: 12.0 mg/kg/injection, schedule: Q01DX009 (ip), vehicle: saline with Tween-80) was 100 % of control, the T/C (endpoint: mean survival time, dose: 12.5 mg/kg/injection, schedule: Q04DX003 (ip), vehicle: saline) was 98 % of control and the T/C (endpoint: mean survival time, dose: 18.0 mg/kg/injection, schedule: Q01DX009 (ip), vehicle: saline with Tween-80) was 92 % of control. For the same compound, the T/C [1] was 92 % of control.

With `CCCOC(=O)NCCBr` the T/C [2] was 101 % of control, the T/C [3] was 96 % of control and the T/C [4] was 93 % of control.

`Nc1ncnc2snnc12` was tested, and the T/C [5] was 100 % of control, the T/C [6] was 96 % of control and the T/C [7] was 100 % of control.

In the case of `CCCCCCCCCCCCCOc1ccc2ccccc2c1`, the T/C [5] is reported as 107 % of control, the T/C [6] is reported as 96 % of control and the T/C [7] is reported as 87 % of control.

For `NC(=O)NC1CCCCCC1`, the T/C [3] was 102 % of control, the T/C [4] was 109 % of control and the T/C [8] was 100 % of control.

With `c1ccc(C2SCCCS2)cc1` the T/C (endpoint: mean survival time, dose: 100.0 mg/kg/injection, schedule: Q04DX003 (ip), vehicle: other) was 101 % of control, the T/C (endpoint: mean survival time, dose: 200.0 mg/kg/injection, schedule: Q04DX003 (ip), vehicle: other) was 97 % of control and the T/C (endpoint: mean survival time, dose: 400.0 mg/kg/injection, schedule: Q04DX003 (ip), vehicle: other) was 101 % of control.

With `CC(NCCN(C)C)C1CCC2C3CCC4CC(O)CCC4(C)C3CCC12C` (centres undefined) the T/C (endpoint: mean survival time, dose: 12.5 mg/kg/injection, schedule: Q04DX003 (ip), vehicle: saline with Tween-80) was 101 % of control, the T/C (endpoint: mean survival time, dose: 25.0 mg/kg/injection, schedule: Q04DX003 (ip), vehicle: saline with Tween-80) was 95 % of control and the T/C (endpoint: mean survival time, dose: 50.0 mg/kg/injection, schedule: Q04DX003 (ip), vehicle: saline with Tween-80) was 101 % of control.

In the case of `C=CCNC(=O)/C(=C\c1ccccc1)NC(C)=O`, the T/C [3] is reported as 96 % of control, the T/C [9] is reported as 98 % of control and the T/C [4] is reported as 98 % of control. The T/C [10] was 100 % of control, the T/C [8] was 95 % of control and the T/C [11] was 100 % of control.

In the case of `CC12CCC(O)CC1CCC1C2CCC2(C)C(C3=CC(=O)OC3)CCC12` (centres undefined), the T/C (endpoint: mean survival time, dose: 50.0 mg/kg/injection, schedule: Q01DX001 (ip), vehicle: saline) is reported as 96 % of control, the T/C [12] is reported as 98 % of control and the T/C [13] is reported as 98 % of control.

With `Ic1cccs1` the T/C [12] was 95 % of control.

In the case of `C[CH2][Sn]1([CH2]C)[O]C2C(CO)OC(n3cnc4c(=O)[nH]c(N)nc43)C2[O]1` (centres undefined), the T/C (endpoint: mean survival time, dose: 0.78 mg/kg/injection, schedule: Q01DX005 (ip), vehicle: other) is reported as 100 % of control, the T/C (endpoint: mean survival time, dose: 1.56 mg/kg/injection, schedule: Q01DX005 (ip), vehicle: other) is reported as 100 % of control and the T/C (endpoint: mean survival time, dose: 3.13 mg/kg/injection, schedule: Q01DX005 (ip), vehicle: other) is reported as 104 % of control. The T/C (endpoint: mean survival time, dose: 6.25 mg/kg/injection, schedule: Q01DX005 (ip), vehicle: other) was 102 % of control and the T/C (endpoint: mean survival time, dose: 12.5 mg/kg/injection, schedule: Q01DX005 (ip), vehicle: other) was 96 % of control and 110 % of control.

For `CCOP(=S)(N1CC1)N1CC1`, the T/C [14] was 94 % of control, the T/C (endpoint: mean survival time, dose: 200.0 mg/kg/injection, schedule: Q01DX009 (ip), vehicle: other) was 100 % of control and the T/C [15] was 90 % of control.

With `CCc1cccc(OS(=O)(=O)c2cccc([N+](=O)[O-])c2)c1` the T/C [3] was 98 % of control, the T/C [9] was 103 % of control and the T/C [4] was 102 % of control. For the same compound, the T/C [10] was 103 % of control, the T/C [8] was 93 % of control and the T/C [11] was 101 % of control.

With `Nc1cc2c(c[n+](CCCCCCCC[n+]3cc4c5ccccc5c(N)cc4c4ccccc43)c3ccccc23)c2ccccc12` the T/C (endpoint: mean survival time, dose: 0.78 mg/kg/injection, schedule: Q04DX003 (ip), vehicle: other) was 114 % of control, the T/C (endpoint: mean survival time, dose: 1.56 mg/kg/injection, schedule: Q04DX003 (ip), vehicle: other) was 157 % of control and the T/C (endpoint: mean survival time, dose: 3.13 mg/kg/injection, schedule: Q04DX003 (ip), vehicle: other) was 124 % of control. For the same compound, the T/C (endpoint: mean survival time, dose: 12.5 mg/kg/injection, schedule: Q04DX003 (ip), vehicle: other) was 157 % of control and the T/C (endpoint: mean survival time, dose: 50.0 mg/kg/injection, schedule: Q04DX003 (ip), vehicle: other) was 124 % of control and 103 % of control.

With `CCCCCC(C)(C)N=[P+]([O-])NC(C)(C)CCCCC` (centres undefined) the T/C (endpoint: mean survival time, dose: 25.0 mg/kg/injection, schedule: Q04DX002 (ip), vehicle: saline with Tween-80) was 95 % of control, the T/C (endpoint: mean survival time, dose: 50.0 mg/kg/injection, schedule: Q04DX002 (ip), vehicle: saline with Tween-80) was 102 % of control and the T/C (endpoint: mean survival time, dose: 100.0 mg/kg/injection, schedule: Q04DX002 (ip), vehicle: saline with Tween-80) was 95 % of control and 98 % of control.

`O=C(O)C(CSC(c1ccccc1)(c1ccccc1)c1ccccc1)NC(c1ccccc1)(c1ccccc1)c1ccccc1` (centres undefined) was tested, and the T/C (endpoint: mean survival time, dose: 75.0 mg/kg/injection, schedule: Q01DX001 (ip), vehicle: other) was 97 % of control.

`CC(=O)NC1=C(Sc2ccc([N+](=O)[O-])cc2)C(=O)c2ccccc2C1=O` was tested, and the T/C (endpoint: mean survival time, dose: 75.0 mg/kg/injection, schedule: Q01DX001 (ip), vehicle: saline) was 98 % of control.

For `c1ccc(-c2nnc(-c3ccccc3)nn2)cc1`, the T/C [3] was 98 % of control, the T/C [9] was 98 % of control and the T/C [4] was 98 % of control. The T/C [10] was 101 % of control, the T/C [8] was 95 % of control and the T/C [11] was 96 % of control.

With `COC(=O)c1cccc(O)c1O` the T/C (endpoint: mean survival time, dose: 100.0 mg/kg/injection, schedule: Q04DX002 (ip), vehicle: other) was 98 % of control, the T/C (endpoint: mean survival time, dose: 200.0 mg/kg/injection, schedule: Q04DX002 (ip), vehicle: other) was 92 % of control and the T/C (endpoint: mean survival time, dose: 400.0 mg/kg/injection, schedule: Q04DX002 (ip), vehicle: other) was 95 % of control.

For `O=[N+]([O-])c1ccc(N=Nc2ccccc2)cc1`, the T/C [9] was 90 % of control, the T/C [10] was 92 % of control and the T/C [11] was 92 % of control.

For `O=C(O)c1ccc(C(=O)O)c2c(C(=O)O)ccc(C(=O)O)c12`, the T/C [3] was 95 % of control, the T/C (endpoint: mean survival time, dose: 100.0 mg/kg/injection, schedule: Q04DX003 (ip), vehicle: saline) was 97 % of control and the T/C [4] was 90 % of control. For the same compound, the T/C (endpoint: mean survival time, dose: 200.0 mg/kg/injection, schedule: Q04DX003 (ip), vehicle: saline) was 96 % of control and the T/C (endpoint: mean survival time, dose: 400.0 mg/kg/injection, schedule: Q04DX003 (ip), vehicle: saline) was 93 % of control.

In the case of `O=C(O)C1CCC(=O)N1C(=O)OCc1ccccc1` (centres undefined), the T/C [3] is reported as 95 % of control, the T/C [4] is reported as 92 % of control and the T/C [8] is reported as 90 % of control.

With `N#C/C(=C\c1c[nH]c2ccccc12)C(N)=O` the T/C [14] was 93 % of control, the T/C [3] was 97 % of control and the T/C [4] was 92 % of control. The T/C [15] was 88 % of control and the T/C [8] was 97 % of control.

In the case of `CCCCCC(=O)C(C)C(C)C` (centres undefined), the T/C [2] is reported as 97 % of control, the T/C [3] is reported as 97 % of control and the T/C [4] is reported as 97 % of control.

In the case of `O=C1c2ccccc2C(=O)N1CC/C=C/c1ccc([N+](=O)[O-])cc1Cl`, the T/C [9] is reported as 98 % of control, the T/C [10] is reported as 91 % of control and the T/C [11] is reported as 100 % of control.

For `O=C(CCCCl)Nc1cc([N+](=O)[O-])ccc1OCc1ccccc1`, the T/C [12] was 94 % of control, the T/C [13] was 94 % of control and the T/C (endpoint: mean survival time, dose: 400.0 mg/kg/injection, schedule: Q01DX001 (ip), vehicle: saline) was 94 % of control.

`CCC(C(=O)O)C(=O)O.[NH-]CC1CCCC[N-]1.[Pt+2]` was tested, and the T/C (endpoint: mean survival time, dose: 3.13 mg/kg/injection, schedule: Q04DX003 (ip), vehicle: saline) was 98 % of control, the T/C [1] was 115 % of control and the T/C (endpoint: mean survival time, dose: 50.0 mg/kg/injection, schedule: Q04DX003 (ip), vehicle: saline) was 124 % of control. For the same compound, the T/C (endpoint: median survival time, dose: 200.0 mg/kg/injection, schedule: Q04DX003 (ip), vehicle: distilled water + Tween-80) was 103 % of control.

For `N#Cc1cn(C2OC(CO)C(O)C2O)c2ncnc(N)c12` (centres undefined), the T/C (endpoint: mean survival time, dose: 0.06 mg/kg/injection, schedule: Q01DX009 (ip), vehicle: saline) was 106 % of control, the T/C (endpoint: mean survival time, dose: 0.13 mg/kg/injection, schedule: Q01DX009 (ip), vehicle: saline) was 110 % of control and the T/C (endpoint: mean survival time, dose: 0.5 mg/kg/injection, schedule: Q01DX009 (ip), vehicle: saline) was 111 % of control. The T/C (endpoint: mean survival time, dose: 1.0 mg/kg/injection, schedule: Q01DX009 (ip), vehicle: saline) was 95 % of control, the T/C (endpoint: median survival time, dose: 0.1 mg/kg/injection, schedule: Q06HX024 (ip), vehicle: saline) was 100 % of control and the T/C (endpoint: median survival time, dose: 0.2 mg/kg/injection, schedule: Q06HX024 (ip), vehicle: saline) was 102 % of control. For the same compound, the T/C (endpoint: median survival time, dose: 0.4 mg/kg/injection, schedule: Q06HX024 (ip), vehicle: saline) was 109 % of control.
